Experimental data: publication PMC6848146, “Binding and structural analyses of potent inhibitors of the human Ca^2+/calmodulin dependent protein kinase kinase 2 (CAMKK2) identified from a collection of commercially-available kinase inhibitors” (Scientific Reports, 2019)
Like-named read-outs stand apart in the source and are kept apart here. Marks after values point to notes of the source that are not given here. One block for each compound: values may come before it.

Columns and labels:
[1] = target: T1, CAMKK2-KD (kinase domain of CAMKK2) (Homo sapiens, UniProt Q96RR4); test: DSF thermal-shift screen, 384-well format; assay type: binding; settings: 10 µM compound, 1 µM kinase, 0.1% DMSO, single measurement
T1 construct: the protein kinase domain (amino acids 161–449); hexahistidine (6xHis), TEV-cleavable; made in house
Procedure: (§1) We employed a thermal-shift assay (Differential Scanning Fluorimetry, DSF)[19] to identify compounds that can bind to the kinase domain of CAMKK2 (CAMKK2-KD). Protein thermal denaturation curves (Fig. 1A,B) were used to calculate the denaturation midpoint temperature (Tm) for the kinase domain of CAMKK2 in the presence of ligands or vehicle only (DMSO). […] DSF screens were performed on purified CAMKK2-KD using a library of commercially available, chemically diverse, ATP-competitive, kinase inhibitors.
DSF experiments in 384-well format followed a protocol previously established at the SGC-UNICAMP and described elsewhere.
The compounds, previously solubilized in DMSO, were used at 10 µM final concentration and 0.1% DMSO. Plates were sealed using optically clear films and transferred to a QuantStudio 6 qPCR instrument (Applied Biosystems). […] Protein in 0.1% DMSO was used as a reference.
(§2) For both formats, experiments were performed in singlets.

[2] = target: T1, CAMKK2-KD (kinase domain of CAMKK2); test: DSF thermal-shift screen, 96-well format; assay type: binding; settings: for ΔTm at 12 µM: read-out: ΔTm
Procedure: as §1
SYPRO Orange dye (Invitrogen) was used in 5X as final concentration.
Plates were sealed using optically clear films and transferred to an Mx3005p RT-PCR machine (Agilent).
as §2

CAMKK2-FL = target: T2, CAMKK2-FL (Homo sapiens, UniProt Q96RR4); test: Radiometric enzymatic assay (Eurofins Discovery), Ca2+/Calmodulin present; assay type: biochemical; settings: 90 µM ATP; single measurement
T2 construct: an enzymatic assay using the full-length protein (CAMKK2-FL); purchased Eurofins Discovery (MO, USA), assay service

CAMKK1-FL = target: T3, CAMKK1-FL (Homo sapiens, UniProt Q8N5S9); test: as above; assay type: biochemical; settings: 200 µM ATP; single measurement
T3 construct: purchased Eurofins Discovery (MO, USA), assay service
Procedure: All compounds employed in this study were initially developed to target other human protein kinases, and some are known to be quite promiscuous[18],[21].
Reaction conditions for assays using CAMKK1-FL were: 8 mM MOPS pH 7.0, 0.2 mM EDTA, 0.33 mg/mL MBP (myelin basic protein), 0.5 mM calcium chloride, 0.016 mg/ml calmodulin, 10 mM magnesium acetate and [gamma-^33P-ATP] (200 µM). […] The reactions were initiated by the addition of a Mg^2+-ATP mixture. After incubation for 40 minutes at room temperature, the reaction was stopped by the addition of phosphoric acid to a final concentration of 0.5%. […] Following subtraction of the average inhibitor control well counts, results were expressed as a percentage of the mean kinase activity in the positive control sample.

CAMKK2-KD = CAMKK2-KD (Homo sapiens, UniProt Q96RR4); test: Isothermal titration calorimetry (reverse titration); settings: individual ITC experiment, 20 °C
Procedure: All ITC experiments described below were performed twice.
Measurements were made using a MicroCal AutoITC200 (Malvern, United Kingdom). […] Small molecule inhibitors were diluted in dialysis buffer. All ITC experiments were performed using a “reverse titration” setup in which the protein (in the syringe) was titrated into the cell containing the inhibitor. Two independent ITC measurements were performed for each compound, data for individual runs were integrated separately to obtain single isotherms, which were plotted and analyzed using Sedphat[37]. […] All measurements were made at 20 °C with mixing (1,000 rpm stirring), and used 1.5 µL injections and 180 s between each injection. NITPIC, SEDPHAT and GUSSI[37] were used to analyze and generate figures for ITC data.

[3] = 96-well format, 12 µM compound, 2 µM kinase, 2.5% DMSO, single measurement

CAMKK2-KD, sequence (Q96RR4 161-449): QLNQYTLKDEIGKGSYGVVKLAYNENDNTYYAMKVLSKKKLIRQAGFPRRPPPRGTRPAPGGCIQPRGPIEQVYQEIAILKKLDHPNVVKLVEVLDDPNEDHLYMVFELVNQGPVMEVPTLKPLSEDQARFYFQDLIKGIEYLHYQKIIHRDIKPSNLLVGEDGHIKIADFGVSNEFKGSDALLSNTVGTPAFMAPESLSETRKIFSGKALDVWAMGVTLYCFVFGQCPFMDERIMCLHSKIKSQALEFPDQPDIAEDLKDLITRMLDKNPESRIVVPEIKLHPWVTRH
T1 sequence (Q96RR4 161-449): as above

Compound: Cc1[nH]nc2ccc(-c3cncc(OC[C@@H](N)Cc4ccccc4)c3)cc12 [A-674563]
ΔTm [1]: 4.7 °C

Compound: Cc1cc(Nc2nc(N[C@@H](C)c3ccc(F)cc3)c(C#N)cc2F)[nH]n1 [AZ 960]
ΔTm at 10 µM [1]: 4.3 °C

Compound: Nc1nc(Nc2ccc(S(N)(=O)=O)cc2)nn1C(=O)c1c(F)cccc1F [Aurora/Cdk Inhibitor]
ΔTm [2, 3]: 4.3 °C

Compound: CC[C@@H]1C(=O)N(C)c2cnc(Nc3ccc(C(=O)N[C@H]4CC[C@H](N5CCN(CC6CC6)CC5)CC4)cc3OC)nc2N1C(C)C [BI 6727, Volasertib]
IC50 (CAMKK2-FL): 44 nM | IC50 (CAMKK1-FL): 87 nM | ΔTm at 10 µM [1]: 6 °C

Compound: Cn1cc(C2=C(c3cn(CCCSC(=N)N)c4ccccc34)C(=O)NC2=O)c2ccccc21 [BIM IX]
ΔTm [2, 3]: 8.1 °C

Compound: CN(C)CCCn1cc(C2=C(c3c[nH]c4ccccc34)C(=O)NC2=O)c2ccccc21 [BIM I]
IC50 (CAMKK1-FL): 2590 nM | ΔTm [2, 3]: 7.2^e °C

Compound: O=C(NCCCNc1nc(Nc2cccc(NC(=O)N3CCCC3)c2)ncc1I)c1cccs1 [BX-795]
ΔTm at 10 µM [1]: 5.1 °C

Compound: COc1cc2c(Nc3cc(Cl)c(OC)c(Cl)c3)c(C#N)cnc2cc1OCCCN1CCN(C)CC1 [Bosutinib isomer]
ΔTm [2, 3]: 4.1 °C

Compound: O=C1NCCCc2c1oc1ccc(O)cc21 [CID 755673]
ΔTm [2, 3]: 4.4 °C

Compound: C=CC(=O)Nc1cccc(Nc2nc(Nc3ccc(N4CCN(C(C)=O)CC4)cc3OC)ncc2C(F)(F)F)c1 [CO-1686]
ΔTm at 10 µM [1]: 4.4 °C

Compound: CC1(COc2ccc3c(c2)ncn3-c2ccc3cccc(N4CCC(N)CC4)c3n2)COC1 [Crenolanib (CP-868596), Crenolanib]
IC50 (CAMKK2-FL): 21 nM | IC50 (CAMKK1-FL): 82 nM | ΔTm at 10 µM [1]: 10.6 °C

Compound: CO[C@@H](C(=O)N1Cc2n[nH]c(NC(=O)c3ccc(N4CCN(C)CC4)cc3)c2C1)c1ccccc1 [Danusertib]
ΔTm at 10 µM [1]: 5.1 °C

Compound: CN1CCN(c2ccc3nc(-c4c(N)c5c(F)cccc5[nH]c4=O)[nH]c3c2)CC1 [Dovitinib]
ΔTm at 12 µM [2, 3]: 6.9 °C

Compound: c1ccc(-c2cnc(Nc3ccc(OCCN4CCCC4)cc3)s2)cc1 [Flt3 Inhibitor III]
ΔTm [2, 3]: 7.5 °C

Compound: COc1cc2c(Oc3ccc(NC(=O)C4(C(=O)Nc5ccc(F)cc5)CC4)cc3F)ccnc2cc1OCCCN1CCOCC1 [Foretinib]
IC50 (CAMKK2-FL): 1300 nM | ΔTm at 10 µM [1]: 6.3 °C

Compound: C[C@@H](Oc1cc(-n2cnc3ccc(OC[C@@H](O)CO)cc32)sc1C(N)=O)c1ccccc1Cl [GSK978744A]
ΔTm at 12 µM [2, 3]: 4.9 °C

Compound: CN(c1ccc(NC(=O)Nc2ccc(OC(F)(F)F)cc2)cc1)c1ccnc(Nc2cccc(S(N)(=O)=O)c2)n1 [GW806742X]
ΔTm at 12 µM [2]: 5.8 °C

Compound: CCOC(=O)c1cnc2ccc(-c3cncc(NS(=O)(=O)c4ccccc4)c3)cn12 [HS-173]
ΔTm [1]: 4.2 °C

Compound: CCS(=O)(=O)Nc1ccc2c(c1)/C(=C(/Nc1ccc(CN3CCCCC3)cc1)c1ccccc1)C(=O)N2 [Hesperadin]
ΔTm at 10 µM [1]: 7.3 °C

Compound: O=C(c1ccc(Nc2nccc(-c3cc4ccccc4s3)n2)cc1)N1CCC(N2CCCC2)CC1 [IKK 16]
ΔTm [2, 3]: 6.8 °C

Compound: O=C1Nc2ccccc2/C1=C1/Nc2ccccc2/C1=N\O [Indirubin-3monoxime]
ΔTm [2, 3]: 5.4 °C

Compound: O=C1c2ccccc2-c2n[nH]c3cccc1c23 [JNK Inhibitor II]
ΔTm [2, 3]: 6.8 °C

Compound: COC(=O)[C@@]1(O)C[C@H]2O[C@]1(C)n1c3ccccc3c3c4c(c5c6ccccc6n2c5c31)C(=O)NC4 [K252a]
IC50 (CAMKK2-FL): 50 nM | IC50 (CAMKK1-FL): 51 nM | ΔTm [2, 3]: 18.3^e °C

Compound: Cc1cc(Nc2cc(CN3CCOCC3)c3nc(C)c(Cc4ccc(Cl)cc4F)n3n2)n[nH]1 [LY2784544]
ΔTm at 10 µM [1]: 4.3 °C

Compound: CCN1CCN(Cc2ccc(Nc3ncc(F)c(-c4cc(F)c5nc(C)n(C(C)C)c5c4)n3)nc2)CC1 [LY2835219]
ΔTm at 10 µM [1]: 6.2 °C

Compound: CNC(=O)c1nn(C)c2c1C(C)(C)Cc1cnc(Nc3ccc(N4CCN(C)CC4)cc3)nc1-2 [Milciclib (PHA-848125), Milciclib]
ΔTm at 10 µM [1]: 7 °C

Compound: CC(C)n1cnc2c(Nc3cccc(Cl)c3)nc(NCCO)nc21 [NG 52 (Compound 52)]
ΔTm [2, 3]: 6.8 °C

Compound: CN(c1ncccc1CNc1nc(Nc2ccc3c(c2)CC(=O)N3)ncc1C(F)(F)F)S(C)(=O)=O [PF-562271]
ΔTm [1]: 4.2 °C

Compound: CS(=O)(=O)c1cccc(CNc2nc(Nc3ccc4c(c3)CCC(=O)N4)ncc2C(F)(F)F)c1 [PF-573228]
ΔTm [1]: 4.5 °C

Compound: Cc1nc(Nc2[nH]nc3c2CN(C(=O)N[C@H](CN(C)C)c2ccccc2)C3(C)C)c2sccc2n1 [PF-3758309]
ΔTm at 10 µM [1]: 4.4 °C

Compound: C1=C/COCc2cc(ccc2OCCN2CCCC2)Nc2nccc(n2)-c2cccc(c2)COC/1 [Pacritinib (SB1518), Pacritinib]
ΔTm at 10 µM [1]: 7.8 °C

Compound: CCOc1cc2ncc(C#N)c(Nc3ccc(F)c(Cl)c3)c2cc1NC(=O)/C=C/CN(C)C [Pelitinib]
ΔTm at 10 µM [1]: 4.8 °C

Compound: c1nc2nc(Nc3ccc(N4CCOCC4)cc3)nc(NC3CCCCC3)c2[nH]1 [Reversine]
ΔTm at 12 µM [2, 3]: 4.6 °C

Compound: COc1cc(C(=O)NC2CCN(C)CC2)ccc1Nc1ncc2c(n1)N(C1CCCC1)CC(F)(F)C(=O)N2C [Ro3280]
ΔTm [1]: 4.5 °C

Compound: COc1ccc2c(c1)/C(=C/c1cnc[nH]1)C(=O)N2 [SU9516]
ΔTm at 12 µM [2, 3]: 5 °C

Compound: Cn1cc(/C=C2\C(=O)Nc3ccc(S(N)(=O)=O)cc32)c2ccccc21 [Syk Inhibitor]
ΔTm [2, 3]: 9.4 °C

Compound: C=CC(=O)Nc1cccc(Sc2nc(Nc3ccc(N4CCN(C)CC4)cc3)ncc2Cl)c1 [WZ8040]
ΔTm [1]: 4.8 °C

Compound: JAK Inhibitor I
ΔTm [2, 3]: 4.7 °C

More lines, now with the values ahead:

ΔTm [1]: 9.3 °C
Compound: COc1cc(N2CCC(N)CC2)ccc1Nc1ncc(Cl)c(-c2c[nH]c3ccccc23)n1 [AZD3463]

ΔTm at 10 µM [1]: 4.1 °C
Compound: C=CC(=O)Nc1cc(Nc2nccc(-c3cn(C)c4ccccc34)n2)c(OC)cc1N(C)CCN(C)C [AZD9291]

ΔTm at 10 µM [1]: 4.7 °C
Compound: CCOc1ccn(-c2ccc(F)cc2)c(=O)c1C(=O)Nc1ccc(Oc2ccnc(N)c2Cl)c(F)c1 [BMS-777607]

ΔTm [1]: 4.7 °C
Compound: Cc1cc(CN2CCN(c3c(Br)cnc4nc(-c5ccc(N6CCN(C)CC6)cc5)[nH]c34)CC2)no1 [CCT137690]

ΔTm at 10 µM [1]: 4.4 °C
Compound: Cc1nc(N)sc1-c1ccnc(Nc2ccc(N3CCOCC3)cc2)n1 [CYC116]

ΔTm at 10 µM [1]: 4.3 °C
Compound: N#CCNC(=O)c1ccc(-c2ccnc(Nc3ccc(N4CCOCC4)cc3)n2)cc1 [CYT387]

ΔTm [1]: 6.4 °C
Compound: CNc1nc(Nc2cnn([C@H]3CCN(C4COC4)C[C@@H]3F)c2Cl)ncc1C(F)(F)F [GNE-9605]

ΔG Run 1 (CAMKK2-KD; run 1): -46.2 kJ/mol | ΔH Run 1 (CAMKK2-KD; run 1): -87.5 kJ/mol | ΔG Run 2 (CAMKK2-KD; run 2): -45.8 kJ/mol | ΔH Run 2 (CAMKK2-KD; run 2): -79.1 kJ/mol | ΔTm at 10 µM [1]: 16.2 °C
Compound: O=C(O)c1ccc(-c2c[nH]c3ncc(-c4ccccc4)cc23)cc1C1CCCC1 [GSK650394]

ΔTm at 10 µM [1]: 4.4 °C
Compound: O=C1NC(=O)/C(=C/c2ccc3nccc(-c4ccncc4)c3c2)S1 [GSK1059615]

ΔTm at 10 µM [1]: 8 °C
Compound: Cc1cc(Nc2ncc(Cl)c(Nc3ccccc3S(=O)(=O)C(C)C)n2)c(OC(C)C)cc1C1CCNCC1 [LDK378]

ΔTm at 10 µM [1]: 4.9 °C
Compound: Cc1[nH]c(/C=C2\C(=O)Nc3ccc(S(=O)(=O)Cc4c(Cl)cccc4Cl)cc32)c(C)c1C(=O)N1CCC[C@@H]1CN1CCCC1 [PHA-665752]

ΔTm [1]: 7.2 °C
Compound: Cc1ccc([N+](=O)[O-])cc1S(=O)(=O)N(C)/N=C/c1cnc2ccc(Br)cn12 [PIK-75]

IC50 (CAMKK1-FL): 395 nM | ΔTm [1]: 7.5^d °C
Compound: CNC(=O)c1ccccc1Nc1nc(Nc2ccc(N3CCOCC3)cc2OC)ncc1Cl [TAE226]

ΔTm at 12 µM [2, 3]: 16.3 °C
Compound: COc1cc(N2CCC(N3CCN(C)CC3)CC2)ccc1Nc1ncc(Cl)c(Nc2ccccc2S(=O)(=O)C(C)C)n1 [TAE684]

ΔTm at 10 µM [1]: 4.7 °C
Compound: CCS(=O)(=O)c1cccc(-c2cc(C(=O)NC3CCN(C)CC3)c(C)c3[nH]c4ncc(C)cc4c23)c1 [TAK-901]
